For the first assay, the target named is T1, ligand binding domain of human RORγ (A262-S507) (Homo sapiens, UniProt P51449).
T1 construct: made in house; host or cells: E. coli
T1 sequence (P51449 262-507): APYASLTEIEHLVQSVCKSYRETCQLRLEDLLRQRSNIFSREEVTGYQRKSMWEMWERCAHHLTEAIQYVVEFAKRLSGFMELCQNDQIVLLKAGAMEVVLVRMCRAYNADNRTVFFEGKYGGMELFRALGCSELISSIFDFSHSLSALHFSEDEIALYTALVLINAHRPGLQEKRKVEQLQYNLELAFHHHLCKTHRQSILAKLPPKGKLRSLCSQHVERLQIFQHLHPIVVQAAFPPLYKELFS
The assay is described as follows: General RORγ SPA binding assay (competition with [3H]25-hydroxycholesterol). The conditions noted are these: IC50, RORγ SPA binding assay, inhibition of [3H]25-hydroxycholesterol binding. The method, boiled down: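 Step one: compound meets 50 nM nickel-purified, His-tagged protein from E. coli for 15 min at room temperature (PBS, 0.5% fatty acid free BSA). Step two: radioligand is added for another 15 min. Step three: SPA beads are added for 30 min before scintillation reading and IC50 fitting.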
As usually defined, the IC50 is the concentration at which inhibition is half-maximal. In turn, `Cc1nc(C)c(C(=O)NCc2ccnc(C(F)(F)F)n2)c(C2CCN(C(=O)Oc3ccccc3)CC2)n1` [Compound A125, Phenyl 4-{2,6-dimethyl-5-[({[2-(trifluoromethyl)pyrimidin-4-yl]methyl}amino)carbonyl]pyrimidin-4-yl}piperidine-1-carboxylate] gave an IC50 of 0.0116 µM.

Staying with this assay, now noted: RORγ SPA binding assay, inhibition of [3H]25-hydroxycholesterol binding; read-out: IC50.
As to `Cc1nc(N)nc(C2CCN(C(=O)Oc3cccc(F)c3)CC2)c1-c1nnc(-c2ccnc(C(F)(F)F)n2)o1` [Compound C55, 3-Fluorophenyl 4-(2-amino-6-methyl-5-{5-[2-(trifluoromethyl)pyrimidin-4-yl]-1,3,4-oxadiazol-2-yl}pyrimidin-4-yl)piperidine-1-carboxylate], the IC50 turned out to be 0.0192 µM. `Cc1ncc(C(=O)NCc2cccc(C(F)(F)F)n2)c(C2CCN(C(=O)Cc3c(F)cccc3F)CC2)n1` [Compound A44, 4-(1-(2-(2,6-difluorophenyl)acetyl)piperidin-4-yl)-2-methyl-N-((6-(trifluoromethyl)pyridin-2-yl)methyl)pyrimidine-5-carboxamide]: the IC50 was 0.0057 µM. Same read-out and setting: the same measure for `Cc1nc(N)nc(C2CCN(C(=O)Oc3cc(F)ccc3F)CC2)c1-c1nnc(-c2ccnc(C(F)(F)F)n2)o1` [Compound C54, 2,5-Difluorophenyl 4-(2-amino-6-methyl-5-{5-[2-(trifluoromethyl)pyrimidin-4-yl]-1,3,4-oxadiazol-2-yl}pyrimidin-4-yl)piperidine-1-carboxylate]: 0.0211 µM; for `Cc1nc(C)c(-c2ncc(-c3cccc(Cl)c3)o2)c(C2CCN(C(=O)Nc3c(F)cccc3F)CC2)n1` [Compound C67, 4-{5-[5-(3-Chlorophenyl)-1,3-oxazol-2-yl]-2,6-dimethylpyrimidin-4-yl}-N-(2,6-difluorophenyl)piperidine-1-carboxamide]: 0.111 µM. On the same count and under the same terms, in the case of `Cc1cc(C)cc(CN(C)C(=O)c2cnc(C)nc2C2CCN(C(=O)Cc3c(F)cccc3F)CC2)c1` [Compound A113, 4-(1-(2-(2,6-Difluorophenyl)acetyl)piperidin-4-yl)-N-(3,5-dimethylbenzyl)-N,2-dimethylpyrimidine-5-carboxamide] it was 0.338 µM. On the same count and under the same terms, in the case of `Cc1ncc(C(=NOc2cccc(F)c2)C(F)(F)F)c(C2CCN(C(=O)Cc3c(F)cccc3F)CC2)n1` (mixture of isomers) [Compound B29, (Z)-2-(2,6-Difluorophenyl)-1-(4-(2-methyl-5-(2,2,2-trifluoro-1-(3-fluorophenoxyimino)ethyl)pyrimidin-4-yl)piperidin-1-yl)ethanone] it was 3.72 µM; in that of `Cc1ncc(C(C)(O)CNc2nccc(C(F)(F)F)n2)c(C2CCN(C(=O)Nc3c(F)cccc3C(F)(F)F)CC2)n1` (stereo not drawn) [Compound D22, N-[2-Fluoro-6-(trifluoromethyl)phenyl]-4-[5-(1-hydroxy-1-methyl-2-{[4-(trifluoromethyl)pyrimidin-2-yl]amino}ethyl)-2-methylpyrimidin-4-yl]piperidine-1-carboxamide], 0.0761 µM; in that of `Cc1ncc(C(F)(F)COc2cccc(C(F)(F)F)n2)c(C2CCN(C(=O)Nc3c(F)cccc3F)CC2)n1` [Compound N14, N-(2,6-Difluorophenyl)-4-[5-(1,1-difluoro-2-{[6-(trifluoromethyl)pyridin-2-yl]oxy}ethyl)-2-methylpyrimidin-4-yl]piperidine-1-carboxamide], 0.0041 µM. For `Cc1cc(C)cc(CNC(=O)c2cnc(C)nc2C2CCN(C(=O)Nc3c(F)cccc3F)CC2)c1` [Compound A107, 4-(1-((2,6-Difluorophenyl)carbamoyl)piperidin-4-yl)-N-(3,5-dimethylbenzyl)-2-methylpyrimidine-5-carboxamide], the IC50 is 0.0121 µM. Consider `Cc1ncc(C(C)(O)CNc2ccnc(Cl)c2)c(C2CCN(C(=O)Cc3c(F)cccc3F)CC2)n1` (stereo not drawn) [Compound D7, 1-(4-(5-(1-((2-chloropyridin-4-yl)amino)-2-hydroxypropan-2-yl)-2-methylpyrimidin-4-yl)piperidin-1-yl)-2-(2,6-difluorophenyl)ethanone], for which the IC50 came out at 0.08 µM. For `COc1ncc(C(=O)NCc2cccc(Cl)c2)c(C2CCN(C(=O)Cc3c(F)cccc3F)CC2)n1` [Compound A92, N-(3-chlorobenzyl)-4-(1-(2-(2,6-difluorophenyl)acetyl)piperidin-4-yl)-2-methoxypyrimidine-5-carboxamide], the IC50 came out at 0.01 µM.

`Cc1cc(C)cc(CNC(=O)c2cnc(C)nc2C2CCN(C(=O)Cc3ccccc3Cl)CC2)c1` [Compound A7, 4-(1-(2-(2-chlorophenyl)acetyl)piperidin-4-yl)-N-(3,5-dimethylbenzyl)-2-methylpyrimidine-5-carboxamide]: the IC50 was 0.0281 µM. As to `Cc1nc(C)c(-c2nc(-c3cccc(C(F)(F)F)c3)no2)c(C2CCN(C(=O)c3c(F)cccc3F)CC2)n1` [Compound C65, 4-{1-[(2,6-Difluorophenyl)carbonyl]piperidin-4-yl}-2,6-dimethyl-5-{3-[3-(trifluoromethyl)phenyl]-1,2,4-oxadiazol-5-yl}pyrimidine], the concentration for half-maximal inhibition (IC50) was 2.73 µM. For the molecule `Cc1ncc(C(=O)NOc2cccc(OC(F)(F)F)c2)c(C2CCN(C(=O)Cc3c(F)cccc3F)CC2)n1` [Compound H4, 4-(1-(2-(2,6-difluorophenyl)acetyl)piperidin-4-yl)-2-methyl-N-(3-(trifluoromethoxy)phenoxy)pyrimidine-5-carboxamide], the half-inhibitory concentration (IC50) stood at 0.294 µM. The same measure, in the same setting: the same measure for `Cc1cc(-c2nnc(-c3c(C)nc(C)nc3C3CCN(C(=O)Cc4c(F)cccc4F)CC3)o2)cc(Cl)n1` [Compound C19, 1-(4-(5-(5-(2-chloro-6-methylpyridin-4-yl)-1,3,4-oxadiazol-2-yl)-2,6-dimethylpyrimidin-4-yl)piperidin-1-yl)-2-(2,6-difluorophenyl)ethanone]: 0.269 µM; for `C/C(=N\Oc1cc(F)cc(Cl)c1)c1cnc(C)nc1C1CCN(C(=O)Cc2c(F)cccc2F)CC1` [Compound B12, (E)-1-(4-(5-(1-((3-chloro-5-fluorophenoxy)imino)ethyl)-2-methylpyrimidin-4-yl)piperidin-1-yl)-2-(2,6-difluorophenyl)ethanone]: 0.0022 µM; for `Cc1ncc(C(=O)COc2cccc(Cl)c2)c(C2CCN(C(=O)Cc3c(F)cccc3F)CC2)n1` [Compound M1, 2-(3-Chlorophenoxy)-1-(4-(1-(2-(2,6-difluorophenyl)acetyl)piperidin-4-yl)-2-methylpyrimidin-5-yl)ethanone]: 0.026 µM. With `Cc1nc(N)nc(C2CCN(C(=O)Nc3c(F)cccc3F)CC2)c1-c1nnc(-c2ccnc(C(F)(F)F)n2)o1` [Compound C48, 4-(2-Amino-6-methyl-5-{5-[2-(trifluoromethyl)pyrimidin-4-yl]-1,3,4-oxadiazol-2-yl}pyrimidin-4-yl)-N-(2,6-difluorophenyl)piperidine-1-carboxamide], the concentration for half-maximal inhibition (IC50) worked out at 0.0639 µM. Same read-out and setting: the same measure for `Cc1ncc(C(=O)NCc2ccc(Cl)nc2)c(C2CCN(C(=O)Cc3c(F)cccc3F)CC2)n1` [Compound A71, N-((6-chloropyridin-3-yl)methyl)-4-(1-(2-(2,6-difluorophenyl)acetyl)piperidin-4-yl)-2-methylpyrimidine-5-carboxamide]: 0.242 µM; for `CCNc1ncc(/C(C)=N/Oc2ccnc(C(F)(F)F)c2)c(C2CCN(C(=O)Nc3c(F)cccc3F)CC2)n1` [Compound B60, N-(2,6-Difluorophenyl)-4-{2-(ethylamino)-5-[(1E)-N-{[2-(trifluoromethyl)pyridin-4-yl]oxy}ethanimidoyl]pyrimidin-4-yl}piperidine-1-carboxamide]: 0.115 µM; for `Cc1ncc(C(O)(CCO)COc2cccc(C(F)(F)F)n2)c(C2CCN(C(=O)Nc3c(F)cccc3F)CC2)n1` (stereo not drawn) [Compound N30, N-(2,6-Difluorophenyl)-4-{5-[1,3-dihydroxy-1-({[6-(trifluoromethyl)pyridin-2-yl]oxy}methyl)propyl]-2-methylpyrimidin-4-yl}piperidine-1-carboxamide]: 0.0109 µM.

As for `CCc1ncc(C(=O)NCc2cccc(Cl)c2)c(C2CCN(C(=O)Cc3c(F)cccc3F)CC2)n1` [Compound A48, N-(3-chlorobenzyl)-4-(1-(2-(2,6-difluorophenyl)acetyl)piperidin-4-yl)-2-ethylpyrimidine-5-carboxamide], the IC50 amounted to 0.0067 µM. `Cc1ncc(C(=O)NCc2cc(C)n(C)n2)c(C2CCN(C(=O)Cc3c(F)cccc3F)CC2)n1` [Compound A78, 4-(1-(2-(2,6-difluorophenyl)acetyl)piperidin-4-yl)-N-((1,5-dimethyl-1H-pyrazol-3-yl)methyl)-2-methylpyrimidine-5-carboxamide]: the concentration for half-maximal inhibition (IC50) was 1.79 µM. The same measure, in the same setting: the same measure for `Cc1nc(N)nc(C2CCN(C(=O)Oc3ccccc3F)CC2)c1-c1nnc(-c2ccnc(C(F)(F)F)n2)o1` [Compound C52, 2-Fluorophenyl 4-(2-amino-6-methyl-5-{5-[2-(trifluoromethyl)pyrimidin-4-yl]-1,3,4-oxadiazol-2-yl}pyrimidin-4-yl)piperidine-1-carboxylate]: 0.0087 µM; for `CC(C)c1ncc(C(=O)NCc2ccc(Cl)c(Cl)c2)c(C2CCN(C(=O)Cc3ccccc3F)CC2)n1` [Compound A36, N-(3,4-dichlorobenzyl)-4-(1-(2-(2-fluorophenyl)acetyl)piperidin-4-yl)-2-isopropylpyrimidine-5-carboxamide]: 3.33 µM.

Take `O=C(NCc1ccc(Cl)c(Cl)c1)c1cnc(C(F)(F)F)nc1C1CCN(C(=O)Cc2c(F)cccc2F)CC1` [Compound A21, N-(3,4-dichlorobenzyl)-4-(1-(2-(2,6-difluorophenyl)acetyl)piperidin-4-yl)-2-(trifluoromethyl)pyrimidine-5-carboxamide]: the IC50 was found to be 0.209 µM.

These data come from US10035790B2, “RORγ modulators” (BRISTOL-MYERS SQUIBB COMPANY, priority 2012, dated 2018).
